From patent US9526796B2, “Peptide-based in vivo siRNA delivery system” (priority 2010, dated 2016)
Non-standard residues stand in square brackets, D forms with d. No end group written: not given here. Nle = CCCC[C@H](N)C(=O)O

System: ApoB
Assay: Knockdown of endogenous serum ApoB in mice after co-injection of masked melittin delivery peptide and ApoB siRNA-cholesterol conjugate
Assay type: in vivo
Description: RNAi polynucleotide conjugates and masked melittin peptides were synthesized as described above. Six to eight week old mice (strain C57BL/6 or ICR, ˜18-20 g each) were obtained from Harlan Sprague Dawley (Indianapolis Ind.). Mice were housed at least 2 days prior to injection. Feeding was performed ad libitum with Harlan Teklad Rodent Diet (Harlan, Madison Wis.). Mice were injected with 0.2 mL solution of delivery peptide and 0.2 mL siRNA conjugates into the tail vein. For simultaneous injection of delivery peptide and siRNA, the siRNA-conjugate was added to modified peptide prior to injection and the entire amount was injected. The composition was soluble and nonaggregating in physiological conditions. Solutions were injected by infusion into the tail vein.
Mice were fasted for 4 h (16 h for rats) before serum collection by submandibular bleeding. For rats blood was collected from the jugular vein. Serum ApoB protein levels were determined by standard sandwich ELISA methods. Briefly, a polyclonal goat anti-mouse ApoB antibody and a rabbit anti-mouse ApoB antibody (Biodesign International) were used as capture and detection antibodies respectively. An HRP-conjugated goat anti-rabbit IgG antibody (Sigma) was applied afterwards to bind the ApoB/antibody complex. Absorbance of tetramethyl-benzidine (TMB, Sigma) colorimetric development was then measured by a Tecan Safire2 (Austria, Europe) microplate reader at 450 nm.
Melittin was reversibly modified with CDM-NAG as described above. The indicated amount of melittin was then co-injected with the 200 μg ApoB siRNA-cholesterol conjugate. Effect on ApoB levels were determined as described above.
Melittin was reversibly modified with CDM-NAG as described above. The indicated amount of melittin was then co-injected with 50 μg ApoB siRNA-cholesterol conjugate. Effect on ApoB levels were determined as described above.
Melittin was reversibly modified with CDM-NAG (5×) as described above. The indicated amount of melittin was then co-injected with the indicated amount of ApoB siRNA-cholesterol conjugate. Effect on ApoB levels were determined as described above.
Melittin was reversibly modified with the indicated amount of CDM-NAG as described above. 50 μg melittin was then co-injected with the 100 μg ApoB siRNA-cholesterol conjugate. Effect on ApoB levels were determined as described above.
Melittin peptides having the indicated sequence were reversibly modified with CDM-NAG (5×) as described above. The indicated amount of melittin was then co-injected with the indicated amount of ApoB siRNA-cholesterol conjugate. Effect on ApoB levels were determined as described above.
Melittin peptides containing the indicated PEG amino terminal modifications were synthesized as described above. The PEG amino terminal modified melittin peptides were then reversibly modified with 5×CDM-NAG as described above. The indicated amount of Melittin was then co-injected with the 100-200 μg ApoB siRNA-cholesterol conjugate. Effect on ApoB levels were determined as described above. Addition of PEG less than 5 kDa in size decreased toxicity of the melittin peptides.

[1] = CDM-NAG (5×), 100 μg peptide per mouse, 100 μg siRNA per mouse
[2] = CDM-NAG (5×), 400 μg peptide per mouse, 100 μg siRNA per mouse
[3] = CDM-NAG (5×), 100 μg peptide per mouse, 50 μg siRNA per mouse
[4] = CDM-NAG (5×), 200 μg peptide per mouse, 200 μg siRNA per mouse
[5] = CDM-NAG (5×), 80 μg peptide per mouse, 100 μg siRNA per mouse

In the case of “G1L, I2V, I5V, I17V, I20V (Seq ID 45): melittin peptide derivative (LVGAVLKVLATGLPTLVSWVKNKRKQ; melittin-like peptide derive from Apis florea)”, the percent knockdown [1] was 24%.

For “G1L, K7H (Seq ID 20): melittin peptide derivative (LIGAILHVLATGLPTLISWIKNKRKQ; melittin-like peptide derive from Apis florea)”, the percent knockdown [1] was 97%.

With “G1L, K7R (Seq ID 19): melittin peptide derivative (LIGAILRVLATGLPTLISWIKNKRKQ; melittin-like peptide derive from Apis florea)” the percent knockdown [1] was 92%.

“G1L, K7S (Seq ID 18): melittin peptide derivative (LIGAILSVLATGLPTLISWIKNKRKQ; melittin-like peptide derive from Apis florea)” was tested, and the percent knockdown [1] was 89%.

“G1L, K21A (Seq ID 28): melittin peptide derivative (YIGAILKVLATGLPTLISWIANKRKQ; melittin-like peptide derive from Apis florea)” showed a percent knockdown [1] of 95%.

With “G1L, L5V, A10T, T15A Mel (1-23) (Seq ID 72): melittin peptide derivative” the percent knockdown [2] was 69%.

For “G1L, L5V, A10T, T15A, N22G, K23E dMel (1-23) (Seq ID 73): melittin peptide derivative”, the percent knockdown [2] was 92%.

Work on “G1L, Mel-KKKKK (Seq ID 67): melittin peptide derivative (LIGAILKVLATGLPTLISWIKNKRKQKKKKK; C-terminal KKKKK extension; melittin-like peptide derive from Apis florea)” yielded a percent knockdown [2] of 96%.

With “G1L, R24A (Seq ID 30): melittin peptide derivative (LIGAILKVLATGLPTLISWIKNKAKQ; melittin-like peptide derive from Apis florea)” the percent knockdown [1] was 87%.

In the case of “G1L, S18C (Seq ID 25): melittin peptide derivative (LIGAILKVLATGLPTLICWIKNKRKQ; melittin-like peptide derive from Apis florea)”, the percent knockdown [1] was 93%.

Substance “G1L, T11C dMel (Seq ID 21): melittin peptide derivative ([dL][dI]G[dA][dI][dL][dK][dV][dL][dA][dC]G[dL][dP][dT][dL][dI][dS][dW][dI][dK][dN][dK][dR][dK][dQ])” has a percent knockdown [3] of 81%.

For “G1L, T11C, S18C dMel (Seq ID 38): melittin peptide derivative ([dL][dI]G[dA][dI][dL][dK][dV][dL][dA][dC]G[dL][dP][dT][dL][dI][dC][dW][dI][dK][dN][dK][dR][dK][dQ]; cysteine pairing not given here)”, the percent knockdown [1] was 88%.

“G1L, T15C dMel (Seq ID 24): melittin peptide derivative ([dL][dI]G[dA][dI][dL][dK][dV][dL][dA][dT]G[dL][dP][dC][dL][dI][dS][dW][dI][dK][dN][dK][dR][dK][dQ])” showed a percent knockdown [1] of 95%.

Substance “G1Nle (Seq ID 8): melittin peptide derivative ([Nle]IGAILKVLATGLPTLISWIKNKRKQ)” has a percent knockdown [1] of 96%.

“G1Nle Mel-C (Seq ID 64): melittin peptide derivative ([Nle]IGAILKVLATGLPTLISWIKNKRKQC)” was tested, and the percent knockdown (CDM-NAG (5×), 400 μg peptide per mouse, 50 μg siRNA per mouse) was 89%.

“G1V (Seq ID 9): melittin peptide derivative (VIGAILKVLATGLPTLISWIKNKRKQ; melittin-like peptide derive from Apis florea)” was tested, and the percent knockdown [1] was 91%.

With “G1W (Seq ID 10): melittin peptide derivative (WIGAILKVLATGLPTLISWIKNKRKQ; melittin-like peptide derive from Apis florea)” the percent knockdown [4] was 96%.

“G1Y Mel-PLGIAGQC (Seq ID 66): melittin peptide derivative (YIGAILKVLATGLPTLISWIKNKRKQPLGIAGQC; C-terminal PLGIAGQC extension; melittin-like peptide derive from Apis florea)” showed a percent knockdown [1] of 79%.

“G1Y dMel (Seq ID 11): G1Y melittin peptide having D-form amino acids ([dY][dI]G[dA][dI][dL][dK][dV][dL][dA][dT]G[dL][dP][dT][dL][dI][dS][dW][dI][dK][dN][dK][dR][dK][dQ])” was tested, and the percent knockdown [3] was 95%.

“G1Y dMel-GFKGC (Seq ID 68): melittin peptide derivative ([dY][dI]G[dA][dI][dL][dK][dV][dL][dA][dT]G[dL][dP][dT][dL][dI][dS][dW][dI][dK][dN][dK][dR][dK][dQ]GFKGC)” showed a percent knockdown [2] of 96%.

“G1Y, K7A (Seq ID 17): melittin peptide derivative (YIGAILAVLATGLPTLISWIKNKRKQ; melittin-like peptide derive from Apis florea)” showed a percent knockdown [2] of 83%.

“G1Y, K7A, K21A (Seq ID 35): melittin peptide derivative (YIGAILAVLATGLPTLISWIANKRKQ; melittin-like peptide derive from Apis florea)” showed a percent knockdown [1] of 14%.

For “G1Y, K7N (Seq ID 16): melittin peptide derivative (YIGAILNVLATGLPTLISWIKNKRKQ; melittin-like peptide derive from Apis florea)”, the percent knockdown [5] was 32%.

For “G1Y, K23A (Seq ID 29): melittin peptide derivative (YIGAILKVLATGLPTLISWIKNARKQ; melittin-like peptide derive from Apis florea)”, the percent knockdown [1] was 42%.

In the case of “G1Y, K25A (Seq ID 31): melittin peptide derivative (YIGAILKVLATGLPTLISWIKNKRAQ; melittin-like peptide derive from Apis florea)”, the percent knockdown [1] was 77%.

In the case of “G1Y, Q26C (Seq ID 32): melittin peptide derivative (YIGAILKVLATGLPTLISWIKNKRKC; melittin-like peptide derive from Apis florea)”, the percent knockdown [1] was 93%.

“G1Y-Mel-NH2 (Seq ID 110): melittin peptide derivative (YIGAILKVLATGLPTLISWIKNKRKQ-NH2)” was tested, and the percent knockdown [4] was 94%.

“G1dI (D form Ile at 1^st position, Seq ID 6): melittin peptide derivative ([dI]IGAILKVLATGLPTLISWIKNKRKQ)” gave a percent knockdown (CDM-NAG (5×), 50 μg peptide per mouse, 100 μg siRNA per mouse) of 34%.

In the case of “G12L (Seq ID 13): melittin peptide derivative (GIGAILKVLATLLPTLISWIKNKRKQ; melittin-like peptide derive from Apis florea)”, the percent knockdown [5] was 58%.

For “G12W (Seq ID 14): melittin peptide derivative (GIGAILKVLATWLPTLISWIKNKRKQ; melittin-like peptide derive from Apis florea)”, the percent knockdown [5] was 51%.

In the case of “Leu-Melittin (Seq ID 7) L form: G1L melittin peptide, L form amino acids (LIGAILKVLATGLPTLISWIKNKRKQ; melittin-like peptide derive from Apis florea)”, the “% knockdown” value (1× CDM-NAG, 100 μg siRNA, 50 μg peptide) was 74%, the “% knockdown” value (2× CDM-NAG, 100 μg siRNA, 50 μg peptide) was 88% and the “% knockdown” value (5× CDM-NAG, 50 μg siRNA, 25 μg peptide) was 15%. The “% knockdown” value (5× CDM-NAG, 50 μg siRNA, 50 μg peptide) was 70%, the “% knockdown” value (5× CDM-NAG, 50 μg siRNA, 100 μg peptide) was 90% and the “% knockdown” value (5× CDM-NAG, 50 μg siRNA, 200 μg peptide) was 90%. The “% knockdown” value (5× CDM-NAG, 50 μg siRNA, 400 μg peptide) was 90%, the “% knockdown” value (5× CDM-NAG, 100 μg siRNA, 50 μg peptide) was 82% and the percent knockdown (5× CDM-NAG, no PEG modification, 25 μg peptide, 100 μg siRNA) was 0%. For the same substance, the percent knockdown (5× CDM-NAG, no PEG modification, 50 μg peptide, 100 μg siRNA) was 72% and the percent knockdown (5× CDM-NAG, no PEG modification, 100 μg peptide, 100 μg siRNA) was 94%.
